How the values were obtained:
[1] = 101.33 kPa, Liquid, Vibrating tube method
[2] = refractive index (Na D-line) (dimensionless); settings: 101.33 kPa, Liquid, Standard Abbe refractometry
[3] = relative permittivity at zero frequency (dimensionless); settings: 101.33 kPa, Liquid, Parallel plate capacitor
[4] = refractive index (Na D-line) (dimensionless); xn = mol fraction of the nth substance listed; settings: 101 kPa, Liquid, Standard Abbe refractometry
[5] = relative permittivity at zero frequency (dimensionless); xn = mol fraction of the nth substance listed; settings: 101 kPa, Liquid, Parallel plate capacitor

CCCCCCCC [octane]
Settings	mass density, [1] [kg/m3]	refractive index, [2]	relative permittivity at zero frequency, [3]
288.15 K	706.81	–	1.975
293.15 K	702.77	1.3991	1.968
298.15 K	698.73	1.3967	1.961
303.15 K	694.7	1.3945	1.954
308.15 K	690.67	–	1.947

CCCCCO [pentan-1-ol]
Settings	mass density, [1] [kg/m3]	refractive index, [2]	relative permittivity at zero frequency, [3]
288.15 K	818.49	–	16.334
293.15 K	814.82	1.41001	15.736
298.15 K	811.19	1.4084	15.144
303.15 K	807.5	1.4065	14.565
308.15 K	803.86	–	13.998

CCCCCO [pentan-1-ol] + CCCCCCCC
Settings	refractive index, 293.15 K	refractive index, 298.15 K	refractive index, 303.15 K	relative permittivity at zero frequency, 288.15 K	relative permittivity at zero frequency, 293.15 K	relative permittivity at zero frequency, 298.15 K	relative permittivity at zero frequency, 303.15 K	relative permittivity at zero frequency, 308.15 K
[4], x1 = 0.1008	1.3981	1.3965	1.3937	–	–	–	–	–
[4], x1 = 0.2034	1.3988	1.3973	1.3946	–	–	–	–	–
[4], x1 = 0.3004	1.3997	1.3982	1.3955	–	–	–	–	–
[4], x1 = 0.3808	1.4005	1.3991	1.3964	–	–	–	–	–
[4], x1 = 0.4885	1.4019	1.4004	1.3979	–	–	–	–	–
[4], x1 = 0.593	1.4033	1.4019	1.3993	–	–	–	–	–
[4], x1 = 0.6992	1.4047	1.4034	1.4008	–	–	–	–	–
[4], x1 = 0.7922	1.4063	1.405	1.4026	–	–	–	–	–
[4], x1 = 0.8967	1.4082	1.407	1.4046	–	–	–	–	–
[5], x1 = 0.1008	–	–	–	2.104	2.1	2.096	2.092	2.088
[5], x1 = 0.2034	–	–	–	2.331	2.321	2.312	2.304	2.297
[5], x1 = 0.3004	–	–	–	2.766	2.731	2.699	2.669	2.643
[5], x1 = 0.3808	–	–	–	3.405	3.32	3.243	3.173	3.111
[5], x1 = 0.4885	–	–	–	4.798	4.601	4.421	4.257	4.109
[5], x1 = 0.593	–	–	–	6.675	6.358	6.053	5.774	5.516
[5], x1 = 0.6992	–	–	–	8.743	8.332	7.936	7.559	7.204
[5], x1 = 0.7922	–	–	–	11.143	10.654	10.175	9.712	9.267
[5], x1 = 0.8967	–	–	–	13.734	13.179	12.634	12.103	11.585
